Target: T1, metabotropic glutamate receptors mG1uR2 (Rattus norvegicus, UniProt P31421)
T1 construct: expressed in transfected cells
Experiment: Effect of Test Compounds on cAMP Accumulation (inhibition of Forskolin-stimulated cAMP accumulation in CHO cells stably expressing mGluR2)
Assay type: cell-based
Conditions: not given
Description: After the medium was replaced with an L-glutamine free medium, they were cultured for 4 hours, and the supernatant liquid was aspirated. After adding 150 μl of PBS(+)-IBMX (10 mM PBS(-), 1 mM MgC12,1 mM CaCl2, 1 mM IBMX), incubation was conducted at 37° C. under the presence of 5% CO2 for 20 minutes. Once again the supernatant liquid was suctioned off, 60 μl of 10^-5 M Forskolin and PBS (+)-IBMX containing the specimens listed in Table 1 between 10^-10 and 10^-4 M were added, incubation was carried out for 15 minutes at 37° C. under the presence of 5% CO2, and a study was carried out for the inhibitory effect of the agonists on the Forskolin stimulation cAMP accumulation quantity [for control, the conditions were set to Forskolin with no addition of the compounds (Tanabe et al., Neuron, 8, 169-179 (1992))]. The reactions were halted by adding 100 μl of ice-cooled ethanol, the entire quantity of the supernatant liquid was collected in a separate plate, then was dried up at normal temperature with an evaporator, and was kept at -20° C. In the dried-up samples, the quantity of cAMP was measured using a cAMP EIA kit (from the Amasham company). The control value was subtracted from each cAMP quantity.

T1 sequence (P31421 19-872): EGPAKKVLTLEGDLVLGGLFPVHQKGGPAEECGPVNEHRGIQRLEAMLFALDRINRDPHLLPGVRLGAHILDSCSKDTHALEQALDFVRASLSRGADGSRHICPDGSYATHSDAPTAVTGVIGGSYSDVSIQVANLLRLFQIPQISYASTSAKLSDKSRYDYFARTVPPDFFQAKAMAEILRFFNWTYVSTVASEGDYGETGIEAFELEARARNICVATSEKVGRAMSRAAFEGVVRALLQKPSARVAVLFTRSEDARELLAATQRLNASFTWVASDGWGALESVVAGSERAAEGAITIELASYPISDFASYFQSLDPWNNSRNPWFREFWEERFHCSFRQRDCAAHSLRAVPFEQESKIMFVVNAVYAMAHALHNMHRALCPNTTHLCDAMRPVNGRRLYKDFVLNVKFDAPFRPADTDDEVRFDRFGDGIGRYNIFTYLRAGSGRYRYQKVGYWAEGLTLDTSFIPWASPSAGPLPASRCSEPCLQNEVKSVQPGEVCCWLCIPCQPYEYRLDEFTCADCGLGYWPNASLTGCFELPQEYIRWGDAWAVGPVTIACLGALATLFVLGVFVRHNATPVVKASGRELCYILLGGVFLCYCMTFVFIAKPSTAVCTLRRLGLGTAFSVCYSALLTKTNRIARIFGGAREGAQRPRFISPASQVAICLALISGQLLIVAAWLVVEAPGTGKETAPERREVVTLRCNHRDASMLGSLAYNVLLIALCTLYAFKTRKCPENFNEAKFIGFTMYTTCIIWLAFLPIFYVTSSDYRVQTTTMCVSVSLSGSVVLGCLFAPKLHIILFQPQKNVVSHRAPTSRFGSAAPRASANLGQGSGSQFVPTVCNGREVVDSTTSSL

Compound | IC50 [nM]
N[C@@]1(C(=O)O)CC[C@@H](C(=O)O)C1 [(1s,3R)-ACPD, (1S, 3R)-1-aminocyclopentane-1,3-dicarboxylic acid, reference compound] | 1500

Same assay, conditions: CHO cells stably expressing mGluR2; 10^-5 M Forskolin; specimens 10^-10 to 10^-4 M; 15 minutes at 37° C.; cAMP EIA kit; agonist

Compound | IC50 [nM]
N[C@H](C(=O)O)C1[C@@H](C(=O)O)[C@@H]1C(=O)O (stereo partly drawn) [DCG IV, (2S, 1'R, 2'R, 3'R)-2-(2', 3'-dicarboxycycloproyl)glycine, reference compound] | 98.3
N[C@@]1(C(=O)O)CC[C@@H]2[C@H]1[C@@]2(F)C(=O)O (single isomer, unassigned) [Comp. 2, (-)-(1R*, 2S*, 5R*, 6R*)-2-amino-6-fluorobicyclo[3.1.0]hexane-2,6-dicarboxylic acid] | 16.6
N[C@H](C(=O)O)[C@H]1C[C@@H]1C(=O)O [L-CCG-I, (2S, 1'S, 2'S)-2-(carboxycyclopropyl)glycine, reference compound] | 121

Other lines, results leading:

IC50 [nM] | Compound
34.2 | N[C@@]1(C(=O)O)CC[C@@H]2[C@H]1[C@@]2(F)C(=O)O (racemic) [Comp. 1, (1RS, 2SR, 5RS, 6RS)-2-amino-6-fluorobicyclo[3.1.0]hexane-2,6-dicarboxylic acid]
19.6 | N[C@@]1(C(=O)O)C[C@H](O)[C@@H]2[C@H]1[C@@]2(F)C(=O)O (racemic) [Comp. 5, (1RS, 2SR, 4SR, 5SR, 6SR)-2-amino-6-fluoro-4-hydroxybicyclo [3.1.0]hexane-2,6-dicarboxylic acid]
1.26 | N[C@@]1(C(=O)O)CC(=O)[C@@H]2[C@H]1[C@@]2(F)C(=O)O (racemic) [Comp. 3, (1RS, 2SR, 5SR, 6SR)-2-amino-6-fluoro-4-oxobicyclo[3.1.0]hexane-2,6-dicarboxylic acid]
0.66 | N[C@@]1(C(=O)O)CC(=O)[C@@H]2[C@H]1[C@@]2(F)C(=O)O (single isomer, unassigned) [Comp. 4, (+)-(1R*, 2S*, 5S*, 6S*)-2amino-6-fluoro-4-oxobicyclo [3.1.0]hexane-2,6-dicarboxylic acid]

Source: patent US6333428A, “6-fluorobicyclo[3.1.0]hexane derivatives” (Taisho Pharmaceutical Co., Ltd., priority 1998, dated 2001)
